Reference: ChEMBL document CHEMBL1201862, “PubChem BioAssay data set” (2004)
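Step 1: Grow cells in 96-well plates. Step 2: Expose to compound for 48 hours at 5 concentrations. Step 3: Interpolate endpoints linearly; if unreached, use highest concentration. GI50 = concentration required for 50% inhibition of growth.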 Activity calls are given as the source filed them. Rule as the data show it: active = GI50 up to about 1.1 µM and inactive = higher.

Legend:
Test in all cases: growth of human tumour cells (NCI), 48 h
OVCAR-3 = system: OVCAR-3
SF-268 = system: SF-268
HOP-92 = system: HOP-92
ACHN = system: ACHN
MDA-MB-231 = system: MDA-MB-231
NCI-H23 = system: NCI-H23
OVCAR-4 = system: OVCAR-4
RXF 393 = system: RXF 393
SF-539 = system: SF-539
A549 = system: A549
HL-60 = system: HL-60
HOP-62 = system: HOP-62
K562 = system: K562
UO-31 = system: UO-31
CCRF-CEM = system: CCRF-CEM
COLO 205 = system: COLO 205
SK-MEL-28 = system: SK-MEL-28
T47D = system: T47D
SR = system: SR

Compound | GI50 (OVCAR-3) | GI50 (SF-268) | GI50 (HOP-92) | GI50 (ACHN) | GI50 (MDA-MB-231) | GI50 (NCI-H23) | GI50 (OVCAR-4) | GI50 (RXF 393) | GI50 (SF-539) | GI50 (A549) | GI50 (HL-60) | GI50 (HOP-62) | GI50 (K562) | GI50 (UO-31) | GI50 (CCRF-CEM) | GI50 (COLO 205) | GI50 (SK-MEL-28) | GI50 (T47D) | GI50 (SR)
CN(CCN(C)Cc1ccc(Cl)c(Cl)c1)CCN1CCCC1 | > 75.7 µM (inactive) | 10.4 µM (inactive) | 4.44 µM (inactive) | > 43.3 µM (inactive) | 18.8 µM (inactive) | 42.1 µM (inactive) | 52.5 µM (inactive) | 18.5 µM (inactive) | 19.6 µM (inactive) | 22.6 µM (inactive) | 17.5 µM (inactive) | 22.1 µM (inactive) | 9.16 µM (inactive) | 11.6 µM (inactive) | 3.72 µM (inactive) | 19.2 µM (inactive) | 6.78 µM (inactive) | 57.9 µM (inactive) | –
CCCCCCCCCC(=O)OCC1(CO)C/C(=C/CC(C(C)C)C(C)C)C(=O)O1 (stereo not drawn) | > 100 µM (inactive) | > 100 µM (inactive) | > 100 µM (inactive) | 71.1 µM (inactive) | 51.3 µM (inactive) | > 100 µM (inactive) | 61.2 µM (inactive) | > 100 µM (inactive) | – | 26.6 µM (inactive) | – | 30 µM (inactive) | 18.3 µM (inactive) | 28.7 µM (inactive) | 14.9 µM (inactive) | 9.18 µM (inactive) | 71.3 µM (inactive) | 58.3 µM (inactive) | 26.2 µM (inactive)
Cc1ccccc1N/C(=C(/C(Cl)=C(Cl)Cl)[N+](=O)[O-])n1nnc2ccccc21 | 16.9 µM (inactive) | 15.7 µM (inactive) | – | 29.2 µM (inactive) | 21.3 µM (inactive) | 19.1 µM (inactive) | 17.5 µM (inactive) | – | 17.6 µM (inactive) | 41.7 µM (inactive) | – | 16.9 µM (inactive) | 21.1 µM (inactive) | 16.7 µM (inactive) | 29.6 µM (inactive) | 15.7 µM (inactive) | 17 µM (inactive) | 21 µM (inactive) | –
CC(CO)(CBr)COC(=O)c1cc(Br)c(N)c(Br)c1 (stereo not drawn) | > 100 µM (inactive) | 29.3 µM (inactive) | 20.4 µM (inactive) | 73.8 µM (inactive) | 37.1 µM (inactive) | 79.3 µM (inactive) | > 100 µM (inactive) | – | > 100 µM (inactive) | > 100 µM (inactive) | > 100 µM (inactive) | 32.4 µM (inactive) | > 100 µM (inactive) | 2.67 µM (inactive) | > 100 µM (inactive) | > 100 µM (inactive) | > 100 µM (inactive) | > 100 µM (inactive) | 30.7 µM (inactive)
Cc1cc(C)c(C#N)c(SC(=S)NC(=O)c2ccc(Cl)cc2)n1 | > 100 µM (inactive) | > 100 µM (inactive) | > 100 µM (inactive) | > 100 µM (inactive) | > 100 µM (inactive) | > 100 µM (inactive) | > 100 µM (inactive) | > 100 µM (inactive) | – | > 100 µM (inactive) | – | > 100 µM (inactive) | – | > 100 µM (inactive) | > 100 µM (inactive) | > 100 µM (inactive) | > 100 µM (inactive) | > 100 µM (inactive) | –
O=C(Nc1c(Cl)cccc1Cl)c1c(Cl)c(Cl)c(Cl)c(Cl)c1-c1nc2ccccc2[nH]1 | 25.4 µM (inactive) | 63.7 µM (inactive) | 29.9 µM (inactive) | 50.1 µM (inactive) | – | 76.7 µM (inactive) | 43.6 µM (inactive) | 18 µM (inactive) | 0.535 µM (active) | 0.601 µM (active) | > 100 µM (inactive) | 0.0501 µM (active) | 59.3 µM (inactive) | 80.5 µM (inactive) | > 100 µM (inactive) | 42.8 µM (inactive) | 70.6 µM (inactive) | 28 µM (inactive) | 27.7 µM (inactive)
OCC1OC(n2cnc3c(Cl)nc(Nc4ccccc4)nc32)CC1O (stereo not drawn) | 75.5 µM (inactive) | 65.6 µM (inactive) | 2.74 µM (inactive) | 17.3 µM (inactive) | 31.2 µM (inactive) | 29.3 µM (inactive) | 25.4 µM (inactive) | 57.1 µM (inactive) | > 100 µM (inactive) | 17.7 µM (inactive) | – | > 100 µM (inactive) | 32.7 µM (inactive) | 18 µM (inactive) | 26.1 µM (inactive) | > 100 µM (inactive) | – | > 100 µM (inactive) | –
COC(=O)Nc1nc(=O)c2ccccc2[nH]1 | > 100 µM (inactive) | > 100 µM (inactive) | – | > 100 µM (inactive) | > 100 µM (inactive) | > 100 µM (inactive) | > 100 µM (inactive) | 36.8 µM (inactive) | > 100 µM (inactive) | 0.0775 µM (active) | > 100 µM (inactive) | > 100 µM (inactive) | 31.1 µM (inactive) | 32.1 µM (inactive) | > 100 µM (inactive) | > 100 µM (inactive) | > 100 µM (inactive) | > 100 µM (inactive) | > 100 µM (inactive)
Brc1ccc(/N=N/c2ccc3ccccc3n2)cc1 | – | 22.3 µM (inactive) | 33.2 µM (inactive) | 13.5 µM (inactive) | > 10 µM (inactive) | 27.8 µM (inactive) | – | 28.2 µM (inactive) | 22.2 µM (inactive) | 46.9 µM (inactive) | 18.7 µM (inactive) | – | – | 11.2 µM (inactive) | > 100 µM (inactive) | > 100 µM (inactive) | – | 22.2 µM (inactive) | –
Cc1nc(N)c(N2CCN(C(=O)O)CC2)c(O)n1 | > 100 µM (inactive) | > 100 µM (inactive) | > 100 µM (inactive) | > 100 µM (inactive) | > 100 µM (inactive) | > 100 µM (inactive) | > 100 µM (inactive) | – | > 100 µM (inactive) | > 100 µM (inactive) | > 100 µM (inactive) | > 100 µM (inactive) | > 100 µM (inactive) | > 100 µM (inactive) | > 100 µM (inactive) | > 100 µM (inactive) | > 100 µM (inactive) | > 100 µM (inactive) | > 100 µM (inactive)
CSc1[nH]nc(N)c1C(=O)Nc1ccccc1 | > 100 µM (inactive) | > 100 µM (inactive) | – | – | > 100 µM (inactive) | > 100 µM (inactive) | > 100 µM (inactive) | > 100 µM (inactive) | > 100 µM (inactive) | > 100 µM (inactive) | > 100 µM (inactive) | – | > 100 µM (inactive) | > 100 µM (inactive) | > 100 µM (inactive) | > 100 µM (inactive) | > 100 µM (inactive) | > 100 µM (inactive) | > 100 µM (inactive)
O=S1(=O)OCCOS(=O)(=O)C1(F)Br | > 100 µM (inactive) | > 100 µM (inactive) | – | > 100 µM (inactive) | – | > 100 µM (inactive) | > 100 µM (inactive) | > 100 µM (inactive) | > 100 µM (inactive) | > 100 µM (inactive) | > 100 µM (inactive) | > 100 µM (inactive) | > 100 µM (inactive) | > 100 µM (inactive) | > 100 µM (inactive) | > 100 µM (inactive) | > 100 µM (inactive) | > 100 µM (inactive) | > 100 µM (inactive)
Cc1c(-c2nc(N)c(C#N)c(N)c2C#N)c(=O)oc2ccccc12 | > 100 µM (inactive) | > 100 µM (inactive) | > 100 µM (inactive) | > 100 µM (inactive) | > 100 µM (inactive) | 87.9 µM (inactive) | > 100 µM (inactive) | > 100 µM (inactive) | > 100 µM (inactive) | 45.7 µM (inactive) | 63.5 µM (inactive) | 67.3 µM (inactive) | 59.4 µM (inactive) | > 100 µM (inactive) | 69 µM (inactive) | 60.7 µM (inactive) | > 100 µM (inactive) | 89.5 µM (inactive) | –
CC(C)[C@H](O)C(=O)N[C@H]1Cc2ccc3c(c2)[C@]24C5=C(N=C(O5)[C@H](C(C)C)NC1=O)c1nc(Cl)c(o1)-c1c(Cl)[nH]c5cccc(c15)-c1cccc2c1N[C@H]4O3 | 0.00253 µM (active) | 0.00513 µM (active) | 0.00693 µM (active) | 0.0469 µM (active) | 0.015 µM (active) | 0.00625 µM (active) | 1.57 µM (inactive) | – | 0.00403 µM (active) | 0.0148 µM (active) | – | 2.33 µM (inactive) | 0.00427 µM (active) | 0.0457 µM (active) | 0.00103 µM (active) | – | 0.00718 µM (active) | 3.9 µM (inactive) | –
CN(C)CCNC(=O)Cn1ccc(=O)c2c([N+](=O)[O-])cccc21 | > 100 µM (inactive) | > 100 µM (inactive) | – | > 100 µM (inactive) | > 100 µM (inactive) | > 100 µM (inactive) | > 100 µM (inactive) | > 100 µM (inactive) | > 100 µM (inactive) | > 100 µM (inactive) | > 100 µM (inactive) | > 100 µM (inactive) | > 100 µM (inactive) | > 100 µM (inactive) | > 100 µM (inactive) | > 100 µM (inactive) | > 100 µM (inactive) | > 100 µM (inactive) | > 100 µM (inactive)
COC(=O)/C=C(\S/C(=C(/c1ccccc1)n1cc(C(=O)OC)c(C(=O)OC)n1)c1ccccc1)C(=O)OC | 3.27 µM (inactive) | 16.1 µM (inactive) | – | 3.29 µM (inactive) | 22 µM (inactive) | 18.1 µM (inactive) | 13 µM (inactive) | 13.6 µM (inactive) | 15.8 µM (inactive) | 23.9 µM (inactive) | 3.26 µM (inactive) | 16 µM (inactive) | 3.54 µM (inactive) | 2.24 µM (inactive) | 3.12 µM (inactive) | 1.74 µM (inactive) | 20.7 µM (inactive) | 3.27 µM (inactive) | 11.6 µM (inactive)
